The values below are quoted from earlier work in US20240409577A1, “FORMATION OF AMIDINES AND INTRAMOLECULAR REACTION THEREOF” (priority 2023, published 2024).

The structures appear in SMILES notation.

Usually pKa stands for the pH at which an ionisable group is half protonated.

The conditions of this data set: acid used for the imidazolone transformation.

With `OC(C(F)(F)F)C(F)(F)F` [HFIP, hexafluoroisopropanol], the pKa is on record as 8.3.
